# Test results published in publication PMC12305662, “Fragment-Based Development of Small Molecule Inhibitors Targeting Mycobacterium tuberculosis Cholesterol Metabolism” (Journal of Medicinal Chemistry, 2025).
# Columns and labels:
# CYP142 = CYP142 (Mycobacterium tuberculosis, UniProt P9WPL5); conditions: fragment 1 mM, P450 4-6 µM; relative to DMSO (418.5 nm)
# CYP124 = CYP124 (Mycobacterium tuberculosis, UniProt P9WPP3); conditions: fragment 1 mM, P450 4-6 µM; relative to DMSO (419 nm)
# CYP143 = CYP143 (Mycobacterium tuberculosis, UniProt P9WPL3); conditions: fragment 1 mM, P450 4-6 µM; relative to DMSO (416 nm)
# Chain of CYP143 (P9WPL3 whole entry, the tested form may be a part): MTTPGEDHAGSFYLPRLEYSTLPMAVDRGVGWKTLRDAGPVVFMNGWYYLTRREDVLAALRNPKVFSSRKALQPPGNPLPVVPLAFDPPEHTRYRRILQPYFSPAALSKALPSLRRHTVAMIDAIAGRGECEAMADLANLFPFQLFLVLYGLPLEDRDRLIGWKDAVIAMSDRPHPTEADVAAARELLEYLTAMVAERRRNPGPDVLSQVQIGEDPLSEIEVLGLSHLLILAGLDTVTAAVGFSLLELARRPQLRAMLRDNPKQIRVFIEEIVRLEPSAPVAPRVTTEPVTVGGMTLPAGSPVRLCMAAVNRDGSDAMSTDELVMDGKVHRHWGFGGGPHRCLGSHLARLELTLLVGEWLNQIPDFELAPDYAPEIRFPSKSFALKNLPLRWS
# CYP125 = CYP125 (Mycobacterium tuberculosis, UniProt P9WPP1); format: binding; conditions: fragment 1 mM, P450 4-6 µM; Soret shift relative to DMSO (393 nm)
# Chain of CYP125 (P9WPP1 whole entry, the tested form may be a part): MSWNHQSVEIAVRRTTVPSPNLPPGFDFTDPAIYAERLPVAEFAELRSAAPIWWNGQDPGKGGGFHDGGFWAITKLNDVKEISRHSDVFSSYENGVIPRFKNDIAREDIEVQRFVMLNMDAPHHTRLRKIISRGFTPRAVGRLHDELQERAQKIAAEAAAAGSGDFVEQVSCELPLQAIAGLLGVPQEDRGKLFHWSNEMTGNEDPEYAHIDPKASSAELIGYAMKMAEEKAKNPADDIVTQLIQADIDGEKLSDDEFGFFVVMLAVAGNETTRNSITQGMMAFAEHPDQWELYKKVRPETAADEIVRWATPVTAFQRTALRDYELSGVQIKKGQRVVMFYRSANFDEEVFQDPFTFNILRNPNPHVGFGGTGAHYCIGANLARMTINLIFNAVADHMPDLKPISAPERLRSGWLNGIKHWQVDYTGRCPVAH
# CYP126 = CYP126 (Mycobacterium tuberculosis, UniProt P9WPN9); conditions: fragment 1 mM, P450 4-6 µM; relative to DMSO (418 nm)
# Chain of CYP126 (P9WPN9 whole entry, the tested form may be a part): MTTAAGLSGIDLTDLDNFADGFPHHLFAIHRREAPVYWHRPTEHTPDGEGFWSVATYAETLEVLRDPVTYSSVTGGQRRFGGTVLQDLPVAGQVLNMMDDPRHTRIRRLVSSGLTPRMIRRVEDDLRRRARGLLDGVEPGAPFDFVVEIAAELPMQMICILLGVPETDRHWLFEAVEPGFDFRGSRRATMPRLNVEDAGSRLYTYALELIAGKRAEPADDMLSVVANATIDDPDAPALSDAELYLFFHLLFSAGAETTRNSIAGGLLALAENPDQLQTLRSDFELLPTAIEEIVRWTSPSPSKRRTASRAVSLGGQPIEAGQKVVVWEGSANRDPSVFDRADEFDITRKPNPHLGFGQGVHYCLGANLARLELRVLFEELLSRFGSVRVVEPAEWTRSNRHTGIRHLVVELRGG
# CYP144 = CYP144 (Mycobacterium tuberculosis, UniProt P9WPL1); conditions: fragment 1 mM, P450 4-6 µM; relative to DMSO (421 nm)
# Chain of CYP144 (P9WPL1 whole entry, the tested form may be a part): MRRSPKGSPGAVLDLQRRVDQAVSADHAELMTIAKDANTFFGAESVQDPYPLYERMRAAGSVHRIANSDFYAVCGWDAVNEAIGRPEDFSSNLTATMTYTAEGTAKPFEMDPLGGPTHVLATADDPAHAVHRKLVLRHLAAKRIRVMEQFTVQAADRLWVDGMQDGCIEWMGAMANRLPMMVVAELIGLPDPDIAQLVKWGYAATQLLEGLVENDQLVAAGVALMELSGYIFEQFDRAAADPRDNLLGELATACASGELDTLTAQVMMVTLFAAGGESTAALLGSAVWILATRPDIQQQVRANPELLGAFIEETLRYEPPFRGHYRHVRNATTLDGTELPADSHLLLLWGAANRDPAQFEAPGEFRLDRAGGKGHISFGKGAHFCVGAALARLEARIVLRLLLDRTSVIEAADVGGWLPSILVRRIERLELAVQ
# CYP121 = CYP121 (Mycobacterium tuberculosis, UniProt P9WPP7); conditions: fragment 1 mM, P450 4-6 µM; relative to DMSO (417 nm)
# Chain of CYP121 (P9WPP7 whole entry, the tested form may be a part): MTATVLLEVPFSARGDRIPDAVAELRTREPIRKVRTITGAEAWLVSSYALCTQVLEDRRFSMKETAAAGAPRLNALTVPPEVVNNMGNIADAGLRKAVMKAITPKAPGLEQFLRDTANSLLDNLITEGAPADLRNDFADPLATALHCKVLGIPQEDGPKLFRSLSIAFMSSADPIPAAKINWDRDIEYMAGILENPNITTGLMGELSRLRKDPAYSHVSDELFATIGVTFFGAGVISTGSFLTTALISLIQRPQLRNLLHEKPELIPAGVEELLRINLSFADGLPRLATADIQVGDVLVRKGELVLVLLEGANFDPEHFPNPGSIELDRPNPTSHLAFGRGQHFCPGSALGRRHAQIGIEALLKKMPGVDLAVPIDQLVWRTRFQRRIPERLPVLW
# Chain of CYP142 (P9WPL5 whole entry, the tested form may be a part): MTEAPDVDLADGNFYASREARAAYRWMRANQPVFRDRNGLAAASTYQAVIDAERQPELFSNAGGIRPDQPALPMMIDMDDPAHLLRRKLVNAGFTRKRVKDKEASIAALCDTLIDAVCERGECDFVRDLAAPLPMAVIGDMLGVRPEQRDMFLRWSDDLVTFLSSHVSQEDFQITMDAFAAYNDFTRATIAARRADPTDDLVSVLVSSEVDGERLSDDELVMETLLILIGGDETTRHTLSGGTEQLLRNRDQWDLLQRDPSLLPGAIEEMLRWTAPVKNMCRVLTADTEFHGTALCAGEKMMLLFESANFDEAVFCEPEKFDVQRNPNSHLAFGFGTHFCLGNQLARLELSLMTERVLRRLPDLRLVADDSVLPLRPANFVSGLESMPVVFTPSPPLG
# Chain of CYP124 (P9WPP3 whole entry, the tested form may be a part): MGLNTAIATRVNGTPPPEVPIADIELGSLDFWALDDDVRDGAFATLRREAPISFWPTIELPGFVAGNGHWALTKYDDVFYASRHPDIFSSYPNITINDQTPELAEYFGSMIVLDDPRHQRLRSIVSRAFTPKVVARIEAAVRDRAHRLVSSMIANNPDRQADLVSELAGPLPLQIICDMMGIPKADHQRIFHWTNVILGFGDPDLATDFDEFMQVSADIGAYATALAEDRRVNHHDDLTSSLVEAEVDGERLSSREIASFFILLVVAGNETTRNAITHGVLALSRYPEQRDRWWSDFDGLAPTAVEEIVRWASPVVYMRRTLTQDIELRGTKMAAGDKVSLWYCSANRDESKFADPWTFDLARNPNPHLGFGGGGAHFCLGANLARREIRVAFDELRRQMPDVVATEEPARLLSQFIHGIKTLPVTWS
Structure (SMILES),"Δλmax (nm) CYP142, fragment screen (CYP142)","Δλmax (nm) CYP124, fragment screen (CYP124)","Δλmax (nm) CYP143, fragment screen (CYP143)","Δλmax (nm) CYP125, fragment screen (CYP125)","Δλmax (nm) CYP126, fragment screen (CYP126)","Δλmax (nm) CYP144, fragment screen (CYP144)","Δλmax (nm) CYP121, fragment screen (CYP121)"
Cc1cc(N)n(-c2ccccc2)n1 [compound 6],0 nm,0 nm,0.5 nm,0 nm,0 nm,0 nm,0 nm
Cc1ccc(=O)[nH]n1 [compound 7],0 nm,0 nm,0 nm,0 nm,0 nm,0 nm,0 nm
OCc1ccc(-c2ccncc2)cc1 [compound 8],0 nm,1 nm,1 nm,25 nm,3 nm,0 nm,1 nm
OCc1nccn1Cc1ccccc1 [compound 10],3 nm,1 nm,1 nm,0 nm,0 nm,0 nm,0 nm
Cn1nc(-c2ccccc2)cc1N [compound 11],0 nm,0 nm,-0.5 nm,0 nm,0 nm,0 nm,0 nm
Nc1cc(-c2ccc(Cl)cc2)n[nH]1 [compound 12],0 nm,-1 nm,0 nm,-2 nm,1 nm,0 nm,2 nm
NC1=NN(c2ccccc2)C(=O)C1 [compound 13],0 nm,-1 nm,0 nm,0 nm,0 nm,0 nm,0 nm
Cc1[nH]ncc1-c1ccccc1 [compound 14],1.5 nm,3 nm,0 nm,-2 nm,0 nm,0 nm,0 nm
Cc1cc(C)n(-c2ccc(N)cc2)n1 [compound 16],0 nm,0 nm,0.5 nm,0 nm,0 nm,0 nm,-1 nm
Cc1nn(-c2ccccc2)nc1C(=O)O [compound 18],0 nm,0 nm,0 nm,0 nm,0 nm,0 nm,0 nm
Clc1cncc(Cl)c1 [compound 19],0 nm,0 nm,0 nm,0 nm,0 nm,0 nm,0 nm
c1ccc(Cc2cccnc2)cc1 [compound 20],3 nm,1 nm,2 nm,28 nm,1 nm,0 nm,2 nm
CNCc1cccc(-c2ccccc2)c1 [compound 21],3 nm,-1 nm,4 nm,25 nm,1 nm,0 nm,0 nm
O=C(O)c1ccccc1-n1cccn1 [compound 22],0 nm,0 nm,0 nm,0 nm,0 nm,0 nm,0 nm
Nc1ccc(Br)cn1 [compound 23],0 nm,0 nm,0.5 nm,0 nm,0 nm,0 nm,-1 nm
Cc1cc(O)nnc1O [compound 24],0 nm,0 nm,0 nm,0 nm,0 nm,0 nm,-1 nm
COC(=O)c1ccnc(N)c1 [compound 25],0 nm,0 nm,0.5 nm,0 nm,0 nm,0 nm,0 nm
COC(=O)c1cc2ccccc2cn1 [compound 26],0 nm,0 nm,1 nm,0 nm,0 nm,0 nm,0 nm
Clc1ccc(Cl)nn1 [compound 27],0 nm,0 nm,0.5 nm,0 nm,0 nm,0 nm,0 nm
Nc1cc(Cl)nc(Cl)c1 [compound 28],0 nm,0 nm,0 nm,0 nm,0 nm,0 nm,0 nm
OCc1ccc(Br)cn1 [compound 29],0 nm,0 nm,0.5 nm,0 nm,0 nm,0 nm,0 nm
